Experimental data from patent publication US20090253669A1, “Substituted Sulfonamide Compounds” (GRUENENTHAL GmbH, priority 2008, published 2009).
Read-outs that look alike come from different tables or passages of the source.

Tests used:
[1] = biological target: T1, B1R receptor of the rat (rB1R) (Rattus norvegicus, UniProt P97583); assay: FLIPR Ca2+ assay on rB1R-transfected CHO K1 cells, antagonistic action; format: cell-based
T1 construct: host or cells: CHO K1 cells
T1 sequence (P97583 1-337): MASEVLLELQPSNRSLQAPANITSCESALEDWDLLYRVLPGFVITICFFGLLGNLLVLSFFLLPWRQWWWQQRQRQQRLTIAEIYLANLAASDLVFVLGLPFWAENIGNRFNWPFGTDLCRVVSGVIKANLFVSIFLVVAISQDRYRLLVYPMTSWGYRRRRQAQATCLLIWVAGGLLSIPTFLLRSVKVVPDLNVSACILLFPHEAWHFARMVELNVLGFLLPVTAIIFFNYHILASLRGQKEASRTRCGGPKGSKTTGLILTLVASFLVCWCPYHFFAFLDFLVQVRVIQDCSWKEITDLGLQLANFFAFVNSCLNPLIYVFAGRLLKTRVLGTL

[2] = biological target: T2, human B1R receptor (hB1R) (Homo sapiens, UniProt P46663); assay: FLIPR Ca2+ assay on hB1R-transfected CHO K1 cells, antagonistic action; format: cell-based
T2 construct: host or cells: CHO K1 cells
T2 sequence (P46663 1-353): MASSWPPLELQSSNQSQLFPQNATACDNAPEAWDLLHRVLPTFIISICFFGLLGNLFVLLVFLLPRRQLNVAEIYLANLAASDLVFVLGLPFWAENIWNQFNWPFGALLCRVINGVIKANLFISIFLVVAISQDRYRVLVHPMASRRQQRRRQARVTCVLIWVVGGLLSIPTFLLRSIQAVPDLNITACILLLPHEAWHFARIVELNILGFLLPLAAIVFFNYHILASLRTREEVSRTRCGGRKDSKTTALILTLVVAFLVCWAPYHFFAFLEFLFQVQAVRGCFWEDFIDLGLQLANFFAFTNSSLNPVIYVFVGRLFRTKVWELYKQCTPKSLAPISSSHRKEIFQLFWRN

[3] = CHO-K1, 10 μM test substance, agonist Des-Arg9-bradykinin 100 nM, % of maximum achievable inhibition, read-out: rB1R [10 μM] % inhibition
[4] = CHO-K1, 10 μM test substance, agonist Lys-Des-Arg9-bradykinin 0.5 nM, % of maximum achievable inhibition, read-out: hB1R [10 μM] % inhibition
[5] = CHO-K1, read-out: rB1R [10 μM] % inhibition
[6] = CHO-K1, read-out: hB1R [10 μM] % inhibition

SMILES	inhibition at 10 µM [1, 3]	inhibition at 10 µM [2, 4]	inhibition at 10 µM [1, 5]	inhibition at 10 µM [2, 6]
CN1CCN(C2(c3ccccc3)CCN(C(=O)COCC3CCc4ccccc4N3S(=O)(=O)c3ccc(Cl)c(Cl)c3)CC2)CC1 (centres unmarked) [Compound 115, 2-((1-(3,4-dichlorophenylsulfonyl)-1,2,3,4-tetrahydroquinolin-2-yl)methoxy)-1-(4-(4-methylpiperazin-1-yl)-4-phenylpiperidin-1-yl)ethanone]	72%	71%		
COc1cc(C)c(S(=O)(=O)N2CCCC2COCC(=O)NCC2CCC(c3ccccc3)(N3CCOCC3)CC2)c(C)c1 (centres unmarked) [Compound 152, 2-((1-(4-methoxy-2,6-dimethylphenylsulfonyl)pyrrolidin-2-yl)methoxy)-N-((4-morpholino-4-phenylcyclohexyl)methyl)acetamide]	102%	84%		
O=C(COCC1CCCN(S(=O)(=O)c2c(Cl)cc(Cl)cc2Cl)C1)NC1CCC(c2ccccc2)(N2CCCC2)CC1 (centres unmarked) [Compound 192, N-(4-phenyl-4-(pyrrolidin-1-yl)cyclohexyl)-2-((1-(2,4,6-trichlorophenylsulfonyl)piperidin-3-yl)methoxy)acetamide]	50%	99%		
COc1cc(C)c(S(=O)(=O)N(C)CCOCC(=O)NC2CCC(CCc3ccccc3)(N(C)C)CC2)c(C)c1 (centres unmarked) [Compound 7, N-(4-(dimethylamino)-4-phenethylcyclohexyl)-2-(2-(4-methoxy-N,2,6-trimethylphenylsulfonamido)ethoxy)acetamide]	100%	103%		
CN(CCOCC(=O)NC1CCC(c2ccccc2)(N2CCCC2)CC1)S(=O)(=O)c1ccc(Cl)cc1Cl (centres unmarked) [Compound 179, 2-(2-(2,4-dichloro-N-methylphenylsulfonamido)ethoxy)-N-(4-phenyl-4-(pyrrolidin-1-yl)cyclohexyl)acetamide]	75%	41%		
CN1CCN(C2(c3cccc(F)c3)CCN(C(=O)CCCC3CCCCN3S(=O)(=O)c3cccc4ccccc34)CC2)CC1 (centres unmarked) [Compound 215, 1-(4-(3-Fluorophenyl)-4-(4-methylpiperazin-1-yl)piperidin-1-yl)-4-(1-(naphthalen-1-ylsulfonyl)piperidin-2-yl)butan-1-one]			100%	100%
Cc1cccc(Cl)c1S(=O)(=O)N1c2ccccc2OCC1COCC(=O)N1CCC(c2cccc(F)c2)(N2CCN(C)CC2)CC1 (centres unmarked) [Compound 222, 2-((4-(2-Chloro-6-methylphenylsulfonyl)-3,4-dihydro-2H-benzo[b][1,4]oxazin-3-yl)methoxy)-1-(4-(3-fluorophenyl)-4-(4-methylpiperazin-1-yl)piperidin-1-yl)ethanone]	97%	97%		
COc1cc(C)c(S(=O)(=O)N2CCCCC2COCC(=O)N(C)CC2CCC(Cc3ccccc3)(N3CCN(C)CC3)CC2)c(C)c1 (centres unmarked) [Compound 143, N-((4-benzyl-4-(4-methylpiperazin-1-yl)cyclohexyl)methyl)-2-((1-(4-methoxy-2,6-dimethylphenylsulfonyl)piperidin-2-yl)methoxy)-N-methylacetamide]	111%	103%		
Cc1cc(S(=O)(=O)N2CCCCC2CCC(=O)N(C)CCC2CCC(CCc3ccccc3)(N(C)C)CC2)c(C)cc1Cl (centres unmarked) [Compound 132, 3-(1-(4-chloro-2,5-dimethylphenylsulfonyl)piperidin-2-yl)-N-(2-(4-(dimethylamino)-4-phenethylcyclohexyl)ethyl)-N-methylpropanamide]	43%	103%		
COc1cc(C)c(S(=O)(=O)N(C)CCOCC(=O)N(C)CCC2CCC(c3ccccc3)(N(C)C)CC2)c(C)c1 (centres unmarked) [Compound 72, N-(2-(4-(dimethylamino)-4-phenylcyclohexyl)ethyl)-2-(2-(4-methoxy-N,2,6-trimethylphenylsulfonamido)ethoxy)-N-methylacetamide]	99%	103%		
CN(CCCC1CCC(CCc2ccccc2)(N2CCCC2)CC1)C(=O)CC(NS(=O)(=O)c1ccc2ccccc2c1)c1ccccc1 (centres unmarked) [Compound 79, N-methyl-3-(naphthalene-2-sulfonamido)-N-(3-(4-phenethyl-4-(pyrrolidin-1-yl)cyclohexyl)propyl)-3-phenylpropanamide]	99%	102%		
COc1cc(C)c(S(=O)(=O)N2CCCCC2COCC(=O)N(C)CCCC2CCC(CCc3ccccc3)(N3CCCC3)CC2)c(C)c1 (centres unmarked) [Compound 59, 2-((1-(4-methoxy-2,6-dimethylphenylsulfonyl)piperidin-2-yl)methoxy)-N-methyl-N-(3-(4-phenethyl-4-(pyrrolidin-1-yl)cyclohexyl)propyl)acetamide]	100%	101%		
CN(CCCC1CCC(Cc2ccccc2)(N2CCCC2)CC1)C(=O)CC1CCCCN1S(=O)(=O)c1cccc(C(F)(F)F)c1 (centres unmarked) [Compound 93, N-(3-(4-benzyl-4-(pyrrolidin-1-yl)cyclohexyl)propyl)-N-methyl-2-(1-(3-(trifluoromethyl)phenylsulfonyl)piperidin-2-yl)acetamide]	94%	98%		
Cc1ccccc1CC1(N(C)C)CCC(NC(=O)COCCN(C)S(=O)(=O)c2ccc(Cl)cc2Cl)CC1 (centres unmarked) [Compound 30, 2-(2-(2,4-dichloro-N-methylphenylsulfonamido)ethoxy)-N-(4-(dimethylamino)-4-(2-methylbenzyl)cyclohexyl)acetamide]	39%	63%		
COc1cc(C)c(S(=O)(=O)N(C)CCOCC(=O)N(C)CCC2CCC(Cc3ccccc3)(N3CCCC3)CC2)c(C)c1 (centres unmarked) [Compound 39, N-(2-(4-benzyl-4-(pyrrolidin-1-yl)cyclohexyl)ethyl)-2-(2-(4-methoxy-N,2,6-trimethylphenylsulfonamido)ethoxy)-N-methylacetamide]	101%	105%		
CN(CCC1CCC(CCc2ccccc2)(N2CCCC2)CC1)C(=O)CC(NS(=O)(=O)c1ccc2ccccc2c1)c1ccccc1 (centres unmarked) [Compound 114, N-methyl-3-(naphthalene-2-sulfonamido)-N-(2-(4-phenethyl-4-(pyrrolidin-1-yl)cyclohexyl)ethyl)-3-phenylpropanamide]	73%	96%		
COc1cc(C)c(S(=O)(=O)N(C)CCOCC(=O)NC2CCC(c3ccccc3)(N3CCCCC3)CC2)c(C)c1 (centres unmarked) [Compound 11, 2-(2-(4-methoxy-N,2,6-trimethylphenylsulfonamido)ethoxy)-N-(4-phenyl-4-(piperidin-1-yl)cyclohexyl)acetamide]	90%	100%		
COc1cc(C)c(S(=O)(=O)N2CCCCC2COCC(=O)N2CCC(c3ccccc3)(N3CCN(c4ccncc4)CC3)CC2)c(C)c1 (centres unmarked) [Compound 62, 2-((1-(4-methoxy-2,6-dimethylphenylsulfonyl)piperidin-2-yl)methoxy)-1-(4-phenyl-4-(4-(pyridin-4-yl)piperazin-1-yl)piperidin-1-yl)ethanone]	100%	103%		
Cc1cc(S(=O)(=O)N2CCCCC2CCC(=O)N2CCC(Cc3ccccc3)(N3CCN(C)CC3)CC2)c(C)cc1Cl (centres unmarked) [Compound 130, 1-(4-benzyl-4-(4-methylpiperazin-1-yl)piperidin-1-yl)-3-(1-(4-chloro-2,5-dimethylphenylsulfonyl)piperidin-2-yl)propan-1-one]	49%	102%		
CN(C)C1(c2ccccc2)CCC(NC(=O)CC2c3ccccc3CCN2S(=O)(=O)c2ccc(Cl)c(Cl)c2)CC1 (centres unmarked) [Compound 26, 2-(2-(3,4-dichlorophenylsulfonyl)-1,2,3,4-tetrahydroisoquinolin-1-yl)-N-(4-(dimethylamino)-4-phenylcyclohexyl)acetamide]	56%	84%		
CN1CCN(C2(c3cccc(F)c3)CCN(C(=O)CCCC3CCCCN3S(=O)(=O)c3ccccc3C(F)(F)F)CC2)CC1 (centres unmarked) [Compound 213, 1-(4-(3-Fluorophenyl)-4-(4-methylpiperazin-1-yl)piperidin-1-yl)-4-(1-(2-(trifluoromethyl)phenylsulfonyl)piperidin-2-yl)butan-1-one]			100%	100%
COc1cc(C)c(S(=O)(=O)N2CCCCC2COCCC(=O)N2CCC(c3cccc(F)c3)(N3CCN(C)CC3)CC2)c(C)c1 (centres unmarked) [Compound 226, 1-(4-(3-Fluorophenyl)-4-(4-methylpiperazin-1-yl)piperidin-1-yl)-3-((1-(4-methoxy-2,6-dimethylphenylsulfonyl)piperidin-2-yl)methoxy)propan-1-one]	100%	100%		
